Assay: solvent given as SMILES
[1] = in CCCCCCCCC=CCCCCCCCC(=O)OCC(COC(=O)CCCCCCCC=CCCCCCCCC)OC(=O)CCCCCCCC=CCCCCCCCC

## C=CCC
In C1CCCCC1
  solvation free energy, 298 K: -2.47 kcal/mol
In CC#N
  solvation free energy, 298 K: -1.86 kcal/mol
In CC(C)(C)O
  solvation free energy, 298 K: -2.03 kcal/mol
In CC(C)CC(C)(C)C
  solvation free energy, 298 K: -2.26 kcal/mol
In CC(C)CCO
  solvation free energy, 298 K: -1.99 kcal/mol
In CC(C)CO
  solvation free energy, 298 K: -1.98 kcal/mol
In CC(C)O
  solvation free energy, 298 K: -1.98 kcal/mol
In CCC(C)(C)O
  solvation free energy, 298 K: -2.1 kcal/mol
In CCC(C)CO
  solvation free energy, 298 K: -1.98 kcal/mol
In CCC(C)O
  solvation free energy, 298 K: -1.99 kcal/mol
In CCC(O)CC
  solvation free energy, 298 K: -2.01 kcal/mol
In CCCC(C)O
  solvation free energy, 298 K: -2.01 kcal/mol
In CCCCC
  solvation free energy, 298 K: -2.53 kcal/mol
In CCCCCC
  solvation free energy, 298 K: -2.49 kcal/mol
In CCCCCCC
  solvation free energy, 298 K: -2.48 kcal/mol
In CCCCCCCC
  solvation free energy, 298 K: -2.45 kcal/mol
In CCCCCCCCC
  solvation free energy, 298 K: -2.43 kcal/mol
In CCCCCCCCCC
  solvation free energy, 298 K: -2.42 kcal/mol
In CCCCCO
  solvation free energy, 298 K: -2.01 kcal/mol
In CCCCO
  solvation free energy, 298 K: -2.01 kcal/mol
In CCCO
  solvation free energy, 298 K: -2.01 kcal/mol
In CN(C)C=O
  solvation free energy, 298 K: -1.78 kcal/mol
In CO
  solvation free energy, 298 K: -1.83 kcal/mol
In COC(C)=O
  solvation free energy, 298 K: -2.21 kcal/mol
In Cc1ccc(C)cc1
  solvation free energy, 298 K: -2.33 kcal/mol
In Cc1cccc(C)c1
  solvation free energy, 298 K: -2.3 kcal/mol
In Cc1ccccc1C
  solvation free energy, 298 K: -2.31 kcal/mol
In ClC(Cl)(Cl)Cl
  solvation free energy, 298 K: -2.5 kcal/mol
In O
  solvation free energy, 298 K: 1.36 kcal/mol
In O=CN1CCOCC1
  solvation free energy, 298 K: -1.28 kcal/mol

## CN(C)Cc1ccccc1
In O
  solvation free energy, 298 K: -5.05 kcal/mol

## CCCO
In Brc1ccccc1
  solvation free energy, 298 K: -3.66 kcal/mol
In C1CCOC1
  solvation free energy, 298 K: -5.22 kcal/mol
In C1COCCO1
  solvation free energy, 298 K: -4.52 kcal/mol
In C=CCCCCCCCCCCCCCC
  solvation free energy, 298 K: -2.96 kcal/mol
In CC#N
  solvation free energy, 298 K: -4.84 kcal/mol
In CC(C)(C)O
  solvation free energy, 298 K: -5.55 kcal/mol
In CC(C)CC(C)(C)C
  solvation free energy, 298 K: -3 kcal/mol
In CC(C)CCCC(C)CCCC(C)CCCCC(C)CCCC(C)CCCC(C)C
  solvation free energy, 298 K: -2.6 kcal/mol
In CC(C)CO
  solvation free energy, 298 K: -5.44 kcal/mol
In CC(C)O
  solvation free energy, 298 K: -5.53 kcal/mol
In CC(C)OC(C)C
  solvation free energy, 298 K: -4.39 kcal/mol
In CCC1CO1
  solvation free energy, 298 K: -5.09 kcal/mol
In CCC(C)=O
  solvation free energy, 298 K: -4.97 kcal/mol
In CCCC(C)O
  solvation free energy, 298 K: -5.34 kcal/mol
In CCCCC(CC)COC(=O)CCCCC(=O)OCC(CC)CCCC
  solvation free energy, 298 K: -4.07 kcal/mol
In CCCCCC
  solvation free energy, 298 K: -2.99 kcal/mol
In CCCCCCC
  solvation free energy, 298 K: -2.97 kcal/mol
In CCCCCCCC
  solvation free energy, 298 K: -2.91 kcal/mol
[1]
  solvation free energy, 298 K: -3.96 kcal/mol
In CCCCCCCCCC
  solvation free energy, 298 K: -2.76 kcal/mol
In CCCCCCCCCCCCCCCC
  solvation free energy, 298 K: -2.7 kcal/mol
In CCCCCCCCCCO
  solvation free energy, 298 K: -4.8 kcal/mol
In CCCCCCCCO
  solvation free energy, 298 K: -5.02 kcal/mol
In CCCCCO
  solvation free energy, 298 K: -5.43 kcal/mol
In CCCCO
  solvation free energy, 298 K: -5.22 kcal/mol
In CCCCOC(C)=O
  solvation free energy, 298 K: -4.65 kcal/mol
In CCCOCCC
  solvation free energy, 298 K: -4.2 kcal/mol
In CCO
  solvation free energy, 298 K: -5.69 kcal/mol
In CCOC(=O)c1ccccc1C(=O)OCC
  solvation free energy, 298 K: -4.09 kcal/mol
In CCOCCO
  solvation free energy, 298 K: -5.33 kcal/mol
In CCOP(=O)(OCC)OCC
  solvation free energy, 298 K: -5.39 kcal/mol
In CN1CCCC1=O
  solvation free energy, 298 K: -5.69 kcal/mol
In CN1CCN(C)C1=O
  solvation free energy, 298 K: -5.51 kcal/mol
In CN(C)C=O
  solvation free energy, 298 K: -5.57 kcal/mol
In CO
  solvation free energy, 298 K: -5.92 kcal/mol
In COC(C)(C)C
  solvation free energy, 298 K: -4.6 kcal/mol
In COC(C)=O
  solvation free energy, 298 K: -4.88 kcal/mol
In Cc1ccc(C)cc1
  solvation free energy, 298 K: -3.73 kcal/mol
In Cc1cccc(C)c1
  solvation free energy, 298 K: -3.72 kcal/mol
In ClC(Cl)(Cl)Cl
  solvation free energy, 298 K: -3.53 kcal/mol
In Clc1ccccc1
  solvation free energy, 298 K: -3.83 kcal/mol
In FC(F)(F)C(F)(F)C(F)(F)C(F)(F)C(F)(F)C(F)(F)C(F)(F)F
  solvation free energy, 298 K: -1.69 kcal/mol
In FC(F)(F)C(F)(F)C(F)(F)C(F)(F)C(F)(F)C(F)(F)F
  solvation free energy, 298 K: -1.74 kcal/mol
In NC=O
  solvation free energy, 298 K: -4.84 kcal/mol
In O
  solvation free energy, 298 K: -4.88 kcal/mol
In O=CN1CCOCC1
  solvation free energy, 298 K: -5.02 kcal/mol
In OCC(O)CO
  solvation free energy, 298 K: -4.37 kcal/mol
In OCCOCCO
  solvation free energy, 298 K: -5.2 kcal/mol
In [2H]O[2H]
  solvation free energy, 298 K: -4.95 kcal/mol
In c1ccccc1
  solvation free energy, 298 K: -3.97 kcal/mol

## O=C(C(=O)c1ccccc1)c1ccccc1
In C1CCOC1
  solvation free energy, 298 K: -12.6 kcal/mol
In C1COCCO1
  solvation free energy, 298 K: -12.5 kcal/mol
In CC(=O)N(C)C
  solvation free energy, 298 K: -12.6 kcal/mol
In CC(C)(C)O
  solvation free energy, 298 K: -10.8 kcal/mol
In CC(C)=O
  solvation free energy, 298 K: -12.5 kcal/mol
In CC(C)CC(C)(C)C
  solvation free energy, 298 K: -10.2 kcal/mol
In CC(C)CC(C)O
  solvation free energy, 298 K: -10.8 kcal/mol
In CC(C)CCO
  solvation free energy, 298 K: -10.8 kcal/mol
In CC(C)CO
  solvation free energy, 298 K: -10.8 kcal/mol
In CC(C)O
  solvation free energy, 298 K: -10.8 kcal/mol
In CC(C)OC(C)C
  solvation free energy, 298 K: -11.2 kcal/mol
In CC(C)OCCO
  solvation free energy, 298 K: -11.8 kcal/mol
In CCC(C)(C)O
  solvation free energy, 298 K: -11.1 kcal/mol
In CCC(C)=O
  solvation free energy, 298 K: -12.5 kcal/mol
In CCC(C)O
  solvation free energy, 298 K: -10.9 kcal/mol
In CCCC(C)O
  solvation free energy, 298 K: -10.9 kcal/mol
In CCCCC(CC)CO
  solvation free energy, 298 K: -10.8 kcal/mol
In CCCCCC
  solvation free energy, 298 K: -10.3 kcal/mol
In CCCCCCC
  solvation free energy, 298 K: -10.3 kcal/mol
In CCCCCCCC
  solvation free energy, 298 K: -10.3 kcal/mol
[1]
  solvation free energy, 298 K: -11.2 kcal/mol
In CCCCCCCCCC
  solvation free energy, 298 K: -10.3 kcal/mol
In CCCCCCCCCCO
  solvation free energy, 298 K: -10.9 kcal/mol
In CCCCCCCCO
  solvation free energy, 298 K: -10.8 kcal/mol
In CCCCCCCO
  solvation free energy, 298 K: -10.9 kcal/mol
In CCCCCCO
  solvation free energy, 298 K: -10.9 kcal/mol
In CCCCCO
  solvation free energy, 298 K: -11 kcal/mol
In CCCCCl
  solvation free energy, 298 K: -12.1 kcal/mol
In CCCCO
  solvation free energy, 298 K: -11 kcal/mol
In CCCCOC(C)=O
  solvation free energy, 298 K: -12.2 kcal/mol
In CCCCOCCO
  solvation free energy, 298 K: -11.8 kcal/mol
In CCCO
  solvation free energy, 298 K: -11.1 kcal/mol
In CCCOCCO
  solvation free energy, 298 K: -11.8 kcal/mol
In CCO
  solvation free energy, 298 K: -11.1 kcal/mol
In CCOC(C)=O
  solvation free energy, 298 K: -12.3 kcal/mol
In CCOCC
  solvation free energy, 298 K: -11.8 kcal/mol
In CCOCCO
  solvation free energy, 298 K: -11.9 kcal/mol
In CO
  solvation free energy, 298 K: -11.2 kcal/mol
In COC(C)(C)C
  solvation free energy, 298 K: -11.8 kcal/mol
In COC(C)=O
  solvation free energy, 298 K: -12.4 kcal/mol
In COC(C)CCO
  solvation free energy, 298 K: -11.8 kcal/mol
In ClC(Cl)(Cl)Cl
  solvation free energy, 298 K: -12 kcal/mol
In ClCCCl
  solvation free energy, 298 K: -12.7 kcal/mol
In Clc1ccccc1
  solvation free energy, 298 K: -12.4 kcal/mol
In Fc1ccccc1
  solvation free energy, 298 K: -12.4 kcal/mol
In O
  solvation free energy, 298 K: -6.64 kcal/mol
In O=C1CCCCC1
  solvation free energy, 298 K: -12.6 kcal/mol

## S
In Brc1ccccc1
  solvation free energy, 298 K: -1.3 kcal/mol
In C1CCC2CCCCC2C1
  solvation free energy, 298 K: -0.99 kcal/mol
In CC1COC(=O)O1
  solvation free energy, 298 K: -1.49 kcal/mol
In CC(=O)N(C)C
  solvation free energy, 298 K: -2.25 kcal/mol
In CC(C)=O
  solvation free energy, 298 K: -1.9 kcal/mol
In CCCCCCCCCCCCCCCC
  solvation free energy, 298 K: -0.88 kcal/mol
In CN1CCCC1=O
  solvation free energy, 298 K: -2.2 kcal/mol
In CN(C)C=O
  solvation free energy, 298 K: -2.2 kcal/mol
In CN(C)P(=O)(N(C)C)N(C)C
  solvation free energy, 298 K: -2.64 kcal/mol
In CO
  solvation free energy, 298 K: -1.72 kcal/mol
In COC(=O)CC#N
  solvation free energy, 298 K: -1.35 kcal/mol
In COCCOCCO
  solvation free energy, 298 K: -1.91 kcal/mol
In COCCOCCOC
  solvation free energy, 298 K: -1.96 kcal/mol
In COCCOCCOCCOC
  solvation free energy, 298 K: -1.84 kcal/mol
In COCCOCCOCCOCCOC
  solvation free energy, 298 K: -1.97 kcal/mol
In CS(C)=O
  solvation free energy, 298 K: -2.04 kcal/mol
In Clc1ccccc1
  solvation free energy, 298 K: -1.5 kcal/mol
In Nc1ccccc1
  solvation free energy, 298 K: -1.7 kcal/mol
In O
  solvation free energy, 298 K: -0.65 kcal/mol
In O=CN1CCOCC1
  solvation free energy, 298 K: -1.81 kcal/mol
In OCCCOCCCO
  solvation free energy, 298 K: -1.24 kcal/mol
In OCCO
  solvation free energy, 298 K: -1.17 kcal/mol
In OCCOCCO
  solvation free energy, 298 K: -1.34 kcal/mol
In OCCOCCOCCO
  solvation free energy, 298 K: -1.32 kcal/mol
In OCc1ccccc1
  solvation free energy, 298 K: -1.35 kcal/mol

## O=C(O)c1cccc(Cl)c1
In C1CCOC1
  solvation free energy, 298 K: -11.2 kcal/mol
In C1COCCO1
  solvation free energy, 298 K: -10.9 kcal/mol
In CC(C)CCO
  solvation free energy, 298 K: -10.5 kcal/mol
In CC(C)CO
  solvation free energy, 298 K: -10.5 kcal/mol
In CC(C)O
  solvation free energy, 298 K: -10.7 kcal/mol
In CC(C)OC(C)C
  solvation free energy, 298 K: -10.1 kcal/mol
In CCC(C)O
  solvation free energy, 298 K: -10.6 kcal/mol
In CCCCCCCCCCO
  solvation free energy, 298 K: -10.3 kcal/mol
In CCCCCCCCO
  solvation free energy, 298 K: -10.4 kcal/mol
In CCCCCCCO
  solvation free energy, 298 K: -10.5 kcal/mol
In CCCCCCO
  solvation free energy, 298 K: -10.6 kcal/mol
In CCCCCO
  solvation free energy, 298 K: -10.6 kcal/mol
In CCCCCOC(C)=O
  solvation free energy, 298 K: -10.1 kcal/mol
In CCCCO
  solvation free energy, 298 K: -10.6 kcal/mol
In CCCCOC(C)=O
  solvation free energy, 298 K: -10.2 kcal/mol
In CCCO
  solvation free energy, 298 K: -10.7 kcal/mol
In CCO
  solvation free energy, 298 K: -10.7 kcal/mol
In CCOC(C)=O
  solvation free energy, 298 K: -10.4 kcal/mol
In CCOCC
  solvation free energy, 298 K: -10.5 kcal/mol
In O
  solvation free energy, 298 K: -7.03 kcal/mol

## Nc1cccc([N+](=O)[O-])c1
In CC(C)CC(C)(C)C
  solvation free energy, 298 K: -8.01 kcal/mol
In O
  solvation free energy, 298 K: -8.84 kcal/mol

Source: the CombiSolv-Exp solvation set (Vermeire and Green 2021)
